Results published in publication PMC7613515, “Reading and erasing of the phosphonium analogue of trimethyllysine by epigenetic proteins” (Communications Chemistry, 2022).

Columns and labels:
KDM4EJmjC (M1–Q337) = molecular target: T1, KDM4EJmjC (M1–Q337) (Homo sapiens, UniProt B2RXH2); assay: LC-MS demethylation assay, KDM4EJmjC; format: biochemical; settings: LC-MS time-course, KDM4EJmjC 0.5 µM, peptide 5.0 µM, 22 °C
T1 construct: We chose human KDM4EJmjC (M1–Q337); made in house
T1 sequence (B2RXH2 1-337): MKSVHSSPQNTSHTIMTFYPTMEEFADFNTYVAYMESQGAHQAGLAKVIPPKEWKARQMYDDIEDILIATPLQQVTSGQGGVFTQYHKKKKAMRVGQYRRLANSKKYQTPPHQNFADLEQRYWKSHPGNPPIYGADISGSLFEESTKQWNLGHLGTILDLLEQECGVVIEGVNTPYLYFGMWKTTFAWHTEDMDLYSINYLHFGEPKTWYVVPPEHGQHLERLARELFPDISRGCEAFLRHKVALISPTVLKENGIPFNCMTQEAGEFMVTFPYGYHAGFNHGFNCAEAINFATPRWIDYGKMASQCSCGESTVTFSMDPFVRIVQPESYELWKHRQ
Description: KDM4EJmjC demethylation studies of H3_1-15K9me3 or H3_1-15KP9me3 incubations using LC-MS were conducted as reported[31], using Agilent RapidFire 365 and Agilent QTOF 6530 machines. In brief, samples were aspirated under vacuum (~50 µL), passed through a loop (10 µL, 400 ms) and wash on a SPE cartridge A (C4) using solvent A (1.5 mL·min^−1, 4500 ms). Peptides were eluted using solvent B (1.25 mL·min^−1, 4500 ms) and directed to the MS for measurements. The cartridge was equilibrated for the next sample (1.25 mL·min^−1, 500 ms) and needle was cleaned with an organic wash solution. Between each sample, an alternating inorganic, organic and inorganic washes were performed to avoid any potential carry over on the SPE cartridge from previous sample. Solvent A: formic acid (0.1%) in water; Solvent B: formic acid (0.1%), acetonitrile (85%) in water; Inorganic wash: water; Organic wash: acetonitrile. Demethylation reactions were conducted in a temperature-controlled room (22 °C) and the MS machine Real-time monitoring mode. A solution [Peptide (6.0 µM), sodium L-ascorbate (600 µM), (NH4)2Fe(II)(SO4)2 (60 µM), disodium 2OG salt (120 µM) in buffer] […] (100 µL) was added and samples from the solution were taken every 2–2.5 min and measured. Note that the time was recorded between the addition and the first aspiration of the enzymatic reaction mixture [Peptide and Enzyme solution mixture]. […]

KDM4DJmjC (M1–L358) = assay: MALDI-TOF demethylation assay, KDM4DJmjC; format: biochemical, human; settings: KDM4DJmjC 2.4 µM, peptide 5.0 µM, 1 hr, duplicates
Description: A Bruker Daltonics MALDI-TOF/TOF AutoflexSpeed machine and Bruker MTP 384 target plates (polished steel BC, Part: 8280781) were used. The machine was controlled using Flex control (v. 3.4 build 135.10) and Compass for flex series (v. 1.4) software. Measurements were in the positive ion mode with the reflectron mode enabled. Incubations employed ProxiPlate-384™ (Perkin Elmer) plates into which was pipetted a solution of [H3_1-15K9me3 (10.0 µM), (+)-sodium L-ascorbate (1.0 mM), (NH4)2Fe(II)(SO4)2 (100 µM), di-sodium 2-oxoglutarate (200 µM) in buffer (HEPES (50 mM)) in MilliQ (pH 7.5)] (5.0 µL) using ClipTip™ (Thermo Scientific™) pipette tips and E1-ClipTip™ (Thermo Scientific™). The enzyme solution [KDM4EJmjC (1.0 µM) in HEPES (50 mM)] (5.0 µL) was added to initiate reaction at 37 °C. Reactions were quenched with formic acid in water (2%, 5.0 µL).

KDM7BJmjC (M37–N483) = assay: MALDI-TOF demethylation assay, KDM7BJmjC; format: biochemical; settings: 1 hr
Description: To investigate whether H3KP9me3 can be demethylated by other human KDM4 subfamily members, recombinant KDM4AJmjC (M1–L359) and KDM4DJmjC (M1–L358) were produced in E. coli following an adaption of literature procedures[38],[39]. […] To test the ability of KDM3 and KDM7 subfamily representatives to demethylate H3KP9me2 or H3KP9me3, KDM3AJmjC (T515–S1317) and KDM7BJmjC (M37–N483) were produced using baculovirus/sf9 and E. coli expression systems, respectively[40],[41]. The synthesis of a histone H3 mimic peptide H3KP9me2 substrate is challenging as the tri-alkylated phosphine group is susceptible to oxidation during synthesis of the protected amino acid and during SPPS requiring oxygen-free conditions. Thus, to investigate if KDM3AJmjC or KDM7BJmjC can catalyse demethylation of H3KP9me2, an appropriate H3KP9me2 substrate was prepared in situ from H3KP9me3 using KDM4EJmjC (2.0 µM), in the presence of KDM3AJmjC (2.0 µM) or KDM7BJmjC (2.0 µM).
A Bruker Daltonics MALDI-TOF/TOF AutoflexSpeed machine and Bruker MTP 384 target plates (polished steel BC, Part: 8280781) were used. The machine was controlled using Flex control (v. 3.4 build 135.10) and Compass for flex series (v. 1.4) software. Measurements were in the positive ion mode with the reflectron mode enabled. […] Samples were then analysed by MALDI-TOF. […]

“ARTKQTAR(KPme3)STGGKA [H3KP9me3, histone H3 residues 1–15 with trimethylphosphonium lysine analogue at position 9]” was tested, and the “demethylation” value (KDM4EJmjC (M1–Q337)) was “both are substrates”, the “demethylation” value (KDM4DJmjC (M1–L358)) was “substantial turnover to H3KP9me2” and the “demethylation in combination with KDM4EJmjC” value (KDM7BJmjC (M37–N483); KDM7BJmjC 2.0 µM plus KDM4EJmjC 2.0 µM, peptide 5.0 µM) was “produced H3KP9me2 (due to KDM4EJmjC catalysis), but did not result in masses consistent with H3KP9me1 or H3KP9”. For the same substance, the “demethylation” value (KDM7BJmjC (M37–N483); KDM7BJmjC 2.0 µM, H3KP9me2 prepared in situ with KDM4EJmjC) was “do not catalyse demethylation of H3K9me3 (as anticipated) or H3KP9me3”.
